In US9968572B2, “Clonidine and GABA compounds in a biodegradable polymer carrier” (Warsaw Orthopedic, Inc., priority 2010, dated 2018):

Tests used:
[1] = test system: Sprague Dawley rats with chronic constriction injury (CCI) of the sciatic nerve; assay: Thermal hyperalgesia paw withdrawal latency after chronic constriction injury of the sciatic nerve; format: in vivo; settings: rat CCI model; gabapentin 90 mg/kg subcutaneous 1 hour prior to each assessment; days 7, 14, 21 post-CCI; injured (rt) limb; vs vehicle (PBS); 2-factor ANOVA, p<0.0001
Experimental: (§1) Rats were treated with a subcutaneous human equivalent dose of 885 mcg of gabapentin 1 hour prior to testing.
(§2) Eight Sprague Dawley rats were given a chronic constriction injury (CCI) of the sciatic nerve. The CCI was induced as described by Bennett and Xie (1988). Animals were anesthetized with pentobarbital (60 mg/kg). The right common sciatic nerve was exposed by blunt dissection between the femoral biceps and quadriceps muscle and freed from adherent tissue. Four loose ligatures were placed 1 mm apart using 4-0 chromic gut absorbable sutures. Four animals received a subcutaneous injection of gabapentin (90 mg/kg) 1 hour prior to each post-CCI pain assessment (BP) and four animals received vehicle (PBS) injections. Thermal hyperalgesia paw withdrawal latency response of the injured (rt) limb was measured 2 days before the CCI and on days 7, 14, and 21 post-CCI surgery. This is considered a model of neuropathic pain. FIG. 3 is a bar graph illustration showing that Von Frey withdrawal threshold is increased by gabapentin in rats with an injury to the sciatic nerve.

[2] = test system: Sprague Dawley rats with chronic constriction injury (CCI) of the sciatic nerve; assay: Mechanical paw withdrawal (allodynia) Von Frey threshold after chronic constriction injury of the sciatic nerve; format: in vivo; settings: rat CCI model; gabapentin 90 mg/kg subcutaneous 1 hour prior to each assessment; days 8, 15, 22 post-CCI; vs vehicle (PBS); 2-factor ANOVA, p<0.001
Experimental: as §1, §2
Mechanical paw withdrawal (allodynia) thresholds of each animal were measured the day before the CCI and on days 8, 15, and 22. FIG. 4 is a bar graph illustration showing that thermal withdrawal latency is increased by gabapentin in rats with an injury to the sciatic nerve. This is considered a model of tactile somatic pain.

## NCC1(CC(=O)O)CCCCC1 [gabapentin, 2-[1-(aminomethyl)cyclohexyl]acetic acid]
[1]
  Thermal withdrawal latency, expressed as a percent of baseline: significantly higher
[2]
  Von Frey threshold, expressed as a percent of baseline: significantly higher
